Patent publication US12084453B2, “Bicyclic amines as CDK12 inhibitors” (Incyte Corporation, priority 2021, dated 2024)

Molecular target: T1, CDK12 complexed with Cyclin K (Homo sapiens, UniProt Q9NYV4)
T1 construct: GST (N); host or cells: baculovirus expression system
Assay: CDK enzymatic assay (HTRF, LANCE Ultra kinase assay)
Assay type: biochemical
Settings: 60 minutes pre-incubation with compound; 1 mM ATP
Protocol: The following activity of the CDK enzymes in complex with their respective cyclins we assayed: CDK1 complexed with Cyclin B1; CDK2 complexed with Cyclin E1; CDK4 complexed with Cyclin D1; CDK6 complexed with Cyclin D1; CDK6 complexed with Cyclin D3; CDK9 complexed with Cyclin T1; CDK7 complexed with Cyclin H/MAT1; CDK2 complexed with Cyclin A2; CDK5 complexed with p35; CDK12 complexed with Cyclin K; CDK13 complexed with Cyclin K. These in vitro enzyme activity are assayed using homogeneous time-resolved energy transfer (HTRF), which measures phosphorylation of a peptide substrate. The LANCE® Ultra kinase assay (PerkinElmer) uses a ULight™-labeled EIF4E-binding protein 1 (THR37/46) peptide (DYSTTPGGTLFSTTPGTRI (SEQ ID NO: 1)) substrate and a Europium-labeled anti-phospho-4E-BP1 antibody (CDK2, CDK1, CDK4, CDK6, CDK9, CDK12, CDK13) or ULight™-labeled Myelin Basic Protein peptide (VTPRTPPP (SEQ ID NO: 2)) substrate and a Europium-labeled anti-phospho-MBP antibody (CDK7). Each CDK enzyme activity assays utilized human CDK co-expressed as N-terminal GST-tagged protein with its full length cyclin partner using a baculovirus expression system.
Enzyme was pre-incubated with compounds for 30 minutes (CDK1,2,4,6,9) or 60 minutes (CDK7, CDK12, CDK13) prior to addition of ATP and Ulight-peptide (1 mM and 50 nM final, respectively), in assay buffer containing 50 mM HEPES pH 7.5, 1 mM EGTA, 10 mM MgCl2, 2 mM DTT, 0.05 mg/mL BSA, and 0.01% Tween 20. The reaction was then incubated for 60-90 minutes at room temperature. The reactions were stopped by the addition of EDTA and Europium labeled antibody, for a final concentration of 15 mM and 1.0-1.5 nM, respectively. HTRF signals were read after 15-120 minutes. A ratio of fluorescence transferred to the labeled substrate (665 nm) relative to fluorescence of the Europium donor (620 nm) represents the extent of phosphorylation. Ratios for treated wells were normalized to DMSO only (100% activity) and no enzyme (0% activity) controls. Normalized data was analyzed using a three or four parameter dose response curve to determine IC50 for each compound and are shown in Table A. Control reference inhibitors were included on each plate.

T1 sequence (Q9NYV4 whole entry): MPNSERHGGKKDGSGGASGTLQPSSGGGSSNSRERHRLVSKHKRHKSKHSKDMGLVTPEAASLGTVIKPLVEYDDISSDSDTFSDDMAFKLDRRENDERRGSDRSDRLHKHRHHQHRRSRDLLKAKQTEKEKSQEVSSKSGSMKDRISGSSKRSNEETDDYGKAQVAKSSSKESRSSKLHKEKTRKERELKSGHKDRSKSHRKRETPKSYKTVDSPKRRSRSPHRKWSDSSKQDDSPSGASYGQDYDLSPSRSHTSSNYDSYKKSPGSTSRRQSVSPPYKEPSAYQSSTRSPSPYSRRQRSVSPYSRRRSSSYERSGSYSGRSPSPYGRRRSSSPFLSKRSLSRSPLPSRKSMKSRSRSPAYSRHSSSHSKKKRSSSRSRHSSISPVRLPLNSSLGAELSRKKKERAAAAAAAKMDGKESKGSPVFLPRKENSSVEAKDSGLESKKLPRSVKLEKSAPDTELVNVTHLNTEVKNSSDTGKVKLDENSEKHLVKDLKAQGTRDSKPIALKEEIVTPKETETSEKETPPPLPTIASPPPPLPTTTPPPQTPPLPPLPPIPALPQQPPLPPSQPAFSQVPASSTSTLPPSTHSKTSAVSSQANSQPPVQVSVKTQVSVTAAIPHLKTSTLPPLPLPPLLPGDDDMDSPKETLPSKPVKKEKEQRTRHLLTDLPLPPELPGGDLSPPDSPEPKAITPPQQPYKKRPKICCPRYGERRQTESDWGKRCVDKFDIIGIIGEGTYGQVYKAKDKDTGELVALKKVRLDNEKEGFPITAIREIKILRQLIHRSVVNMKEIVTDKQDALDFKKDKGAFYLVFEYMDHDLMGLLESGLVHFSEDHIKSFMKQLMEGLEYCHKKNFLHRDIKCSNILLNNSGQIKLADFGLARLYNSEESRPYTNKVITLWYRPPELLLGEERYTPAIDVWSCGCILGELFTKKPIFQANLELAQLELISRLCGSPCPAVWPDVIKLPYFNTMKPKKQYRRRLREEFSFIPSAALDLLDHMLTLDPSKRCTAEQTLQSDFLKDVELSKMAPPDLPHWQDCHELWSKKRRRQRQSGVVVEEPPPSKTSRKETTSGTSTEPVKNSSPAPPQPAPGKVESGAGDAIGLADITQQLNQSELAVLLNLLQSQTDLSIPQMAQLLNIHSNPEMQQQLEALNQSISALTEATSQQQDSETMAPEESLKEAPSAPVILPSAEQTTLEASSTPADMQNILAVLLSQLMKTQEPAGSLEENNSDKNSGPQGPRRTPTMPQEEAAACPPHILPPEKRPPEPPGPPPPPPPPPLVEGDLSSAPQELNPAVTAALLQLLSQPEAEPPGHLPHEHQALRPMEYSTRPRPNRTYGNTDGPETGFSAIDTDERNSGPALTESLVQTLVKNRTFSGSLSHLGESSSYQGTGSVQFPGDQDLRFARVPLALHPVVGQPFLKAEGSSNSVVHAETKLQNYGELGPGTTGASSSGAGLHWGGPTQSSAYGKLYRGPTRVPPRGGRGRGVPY
T1 sequence (O75909 whole entry partner): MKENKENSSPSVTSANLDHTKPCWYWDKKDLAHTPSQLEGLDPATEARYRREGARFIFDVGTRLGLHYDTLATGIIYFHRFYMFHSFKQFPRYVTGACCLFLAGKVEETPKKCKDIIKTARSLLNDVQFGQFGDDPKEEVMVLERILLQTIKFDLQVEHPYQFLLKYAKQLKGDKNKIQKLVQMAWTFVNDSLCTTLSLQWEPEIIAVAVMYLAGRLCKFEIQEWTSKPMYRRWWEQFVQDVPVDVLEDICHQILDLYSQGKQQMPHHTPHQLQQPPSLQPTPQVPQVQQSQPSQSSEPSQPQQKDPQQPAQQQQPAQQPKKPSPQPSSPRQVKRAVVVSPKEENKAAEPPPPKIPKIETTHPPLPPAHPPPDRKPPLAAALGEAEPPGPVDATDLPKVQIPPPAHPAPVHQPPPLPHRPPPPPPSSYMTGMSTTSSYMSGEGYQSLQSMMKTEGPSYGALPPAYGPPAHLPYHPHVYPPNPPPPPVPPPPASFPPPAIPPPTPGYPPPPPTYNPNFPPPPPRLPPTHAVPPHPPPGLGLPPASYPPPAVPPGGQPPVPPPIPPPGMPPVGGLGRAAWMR

IC50 [nM] | SMILES
< 50 | C=CC(=O)Nc1ccc2c(c1)C(=O)N([C@H]1CCC[C@@H](Nc3nc4ccc(-c5cn[nH]c5)c(C(F)(F)F)n4n3)C1)C2 [Example 34, N-(2-((1S,3R)-3-((6-(1H-pyrazol-4-yl)-5-(trifluoromethyl)-[1,2,4]triazolo[1,5-a]pyridin-2-yl)amino)cyclohexyl)-3-oxoisoindolin-5-yl)acrylamide]
< 50 | C=CC(=O)Nc1ccc(C(=O)N2CC(Nc3nc4cnc(-c5cn[nH]c5)c(OC(C)C)n4n3)C2)cc1 [Example 1, N-(4-(3-((5-Isopropoxy-6-(1H-pyrazol-4-yl)-[1,2,4]triazolo[1,5-a]pyrazin-2-yl)amino)azetidine-1-carbonyl)phenyl)acrylamide]
< 50 | C=CC(=O)Nc1ccc(C(=O)N2CC[C@@H](Nc3nc4ccc(-c5cnco5)cn4n3)C2)cc1 [Example 20, (R)-N-(4-(3-((6-(Oxazol-5-yl)-[1,2,4]triazolo[1,5-a]pyridin-2-yl)amino)pyrrolidine-1-carbonyl)phenyl)acrylamide]
< 50 | C=CC(=O)Nc1ccc(C(=O)N2CC[C@@H](Nc3nc4ccc(-c5cn[nH]c5)c(C)n4n3)C2)cc1 [Example 12, (R)-N-(4-(3-((5-Methyl-6-(1H-pyrazol-4-yl)-[1,2,4]triazolo[1,5-a]pyridin-2-yl)amino)pyrrolidine-1-carbonyl)phenyl)acrylamide]
< 50 | C=CC(=O)Nc1ccc(C(=O)N2CCC[C@@H](Nc3nc4ccc(-c5cn[nH]c5)c(N5CCOCC5)n4n3)C2)cc1 [Example 8, (R)-N-(4-(3-((5-Morpholino-6-(1H-pyrazol-4-yl)-[1,2,4]triazolo[1,5-a]pyridin-2-yl)amino)piperidine-1-carbonyl)phenyl)acrylamide]
< 50 | C=CC(=O)Nc1ccc(C(=O)N2CC[C@@H](Nc3nc4ccc(-c5cn[nH]c5)c(C#N)n4n3)C2)cc1 [Example 17, (R)-N-(4-(3-((5-Cyano-6-(1H-pyrazol-4-yl)-[1,2,4]triazolo[1,5-a]pyridin-2-yl)amino)pyrrolidine-1-carbonyl)phenyl)acrylamide]
< 50 | C=CC(=O)Nc1ccc(C(=O)N2CC(Nc3nc4c(OC)c(-c5cn[nH]c5)ncn4n3)C2)cc1 [Example 3, N-(4-(3-((8-Methoxy-7-(1H-pyrazol-4-yl)-[1,2,4]triazolo[1,5-c]pyrimidin-2-yl)amino)azetidine-1-carbonyl)phenyl)acrylamide]
50 to 500 | C=CC(=O)Nc1ccc(C(=O)N2CC[C@@H](Nc3nc4cc(C)c(-c5cn[nH]c5)cn4n3)C2)cc1 [Example 24, (R)-N-(4-(3-((7-Methyl-6-(1H-pyrazol-4-yl)-[1,2,4]triazolo[1,5-a]pyridin-2-yl)amino)pyrrolidine-1-carbonyl)phenyl)acrylamide]
< 50 | C=CC(=O)Nc1cnc(N2CCC[C@@H](Nc3nc4ccc(-c5cn[nH]c5)c(C(C)C)n4n3)C2)c(C)c1 [Example 37, (R)-N-(6-(3-((5-isopropyl-6-(1H-pyrazol-4-yl)-[1,2,4]triazolo[1,5-a]pyridin-2-yl)amino)piperidin-1-yl)-5-methylpyridin-3-yl)acrylamide]
< 50 | C=CC(=O)Nc1ccc2sc(N3CCC[C@@H](Nc4nc5ccc(-c6cn[nH]c6)c(C)n5n4)C3)nc2c1 [Example 29, (R)-N-(2-(3-((5-Methyl-6-(1H-pyrazol-4-yl)-[1,2,4]triazolo[1,5-a]pyridin-2-yl)amino)piperidin-1-yl)benzo[d]thiazol-5-yl)acrylamide]
< 50 | C=CC(=O)Nc1ccc(C(=O)N2CC[C@@H](Nc3nc4ccc(-c5cn[nH]c5)c(C(C)C)n4n3)C2)cc1 [Example 18, (R)-N-(4-(3-((5-Isopropyl-6-(1H-pyrazol-4-yl)-[1,2,4]triazolo[1,5-a]pyridin-2-yl)amino)pyrrolidine-1-carbonyl)phenyl)acrylamide]
< 50 | C=CC(=O)Nc1ccc2sc(N3CCC[C@@H](Nc4nc5ccc(-c6cn[nH]c6)c(C(F)(F)F)n5n4)C3)nc2c1 [Example 35, (R)-N-(2-(3-((6-(1H-pyrazol-4-yl)-5-(trifluoromethyl)-[1,2,4]triazolo[1,5-a]pyridin-2-yl)amino)piperidin-1-yl)benzo[d]thiazol-5-yl)acrylamide]
< 50 | C=C(F)C(=O)Nc1ccc(C(=O)N2CC[C@@H](Nc3nc4cc(-c5cn[nH]c5)ccn4n3)C2)cc1 [Example 31, (R)-N-(4-(3-((7-(1H-Pyrazol-4-yl)-[1,2,4]triazolo[1,5-a]pyridin-2-yl)amino)pyrrolidine-1-carbonyl)phenyl)-2-fluoroacrylamide]
< 50 | C=CC(=O)Nc1ccc(C(=O)N2CC[C@@H](Nc3nc4ccc(-c5cn[nH]c5)c(C(F)(F)F)n4n3)C2)cc1 [Example 30, (R)-N-(4-(3-((6-(1H-Pyrazol-4-yl)-5-(trifluoromethyl)-[1,2,4]triazolo[1,5-a]pyridin-2-yl)amino)pyrrolidine-1-carbonyl)phenyl)acrylamide]

SMILES | IC50 [nM]
C=CC(=O)Nc1ccc(C(=O)N2CCC[C@@H](Nc3nc4cnc(-c5cn[nH]c5)c(OC5CC(F)(F)C5)n4n3)C2)cc1 [Example 10, (R)-N-(4-(3-((5-(3,3-Difluorocyclobutoxy)-6-(1H-pyrazol-4-yl)-[1,2,4]triazolo[1,5-a]pyrazin-2-yl)amino)piperidine-1-carbonyl)phenyl)acrylamide] | < 50
